# Assay results as given in PubChem BioAssay (NCI).
#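 The compound was tested at five concentrations on cells cultured in 96-well plates, with a 48-hour exposure period. At the GI50, growth is halved. TGI marks complete inhibition of growth.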
# Experiments:
# Assay in all cases: inhibition of tumour cell growth, NCI panel, 48 h
# [1] = system: OVCAR-4 ovarian
# [2] = system: SK-MEL-2 melanoma
# [3] = system: HL-60(TB) leukemia
# [4] = system: SNB-19 CNS
# [5] = system: U251 CNS
# [6] = system: OVCAR-8 ovarian
# [7] = system: M14 melanoma
# [8] = system: 786-0 renal
# [9] = system: NCI-H460 lung
# [10] = system: SF-539 CNS
# [11] = system: A498 renal
# [12] = system: SK-MEL-5 melanoma
# [13] = system: LOX IMVI melanoma
# [14] = system: UACC-257 melanoma
# [15] = system: UO-31 renal
# [16] = system: COLO 205 colon
# [17] = system: OVCAR-3 ovarian
# [18] = system: UACC-62 melanoma
# [19] = system: HCT-116 colon
# [20] = system: A549 NSCLC
# [21] = system: CAKI-1 renal
# [22] = system: OVCAR-5 ovarian
# [23] = system: SF-295 CNS
# [24] = system: RXF 393 renal
# [25] = system: MDA-MB-231 breast
# [26] = system: MDA-MB-435
# [27] = system: T-47D breast
# [28] = system: SK-MEL-28 melanoma
# [29] = system: HS 578T breast
# [30] = system: NCI-H522 lung
# [31] = system: RPMI-8226 leukemia
# [32] = system: SF-268 CNS
# [33] = system: NCI/ADR-RES ovarian
# [34] = system: MALME-3M melanoma
# [35] = system: SW-620 colon
# [36] = system: SR leukemia
# [37] = system: TK-10 renal
# [38] = system: SN12C renal
# [39] = system: MCF7 breast
# [40] = system: HOP-62 NSCLC
# [41] = system: PC-3 prostate
# [42] = system: CCRF-CEM leukemia
# [43] = system: KM12 colon
# [44] = system: NCI-H23 lung
# [45] = system: NCI-H226 lung
# [46] = system: IGROV1 ovarian
# [47] = system: SK-OV-3 ovarian
# [48] = system: MOLT-4 leukemia
# [49] = system: DU-145 prostate
# [50] = system: K-562 leukemia
# [51] = system: EKVX NSCLC
# [52] = system: HCC-2998 colon
# [53] = system: SNB-75 CNS
# [54] = system: ACHN renal
# [55] = system: HCT-15 colon
smiles,measurement,setting,value
Nc1cc(N)c2nc(-c3ccccc3)c(Sc3ccc(Cl)c(Cl)c3)nc2c1,GI50,[1],20 µM
same,TGI,[1],> 100 µM
same,GI50,[2],6.2 µM
same,TGI,[2],31.1 µM
same,GI50,[3],8.02 µM
same,TGI,[3],> 100 µM
same,GI50,[4],17 µM
same,TGI,[4],58.1 µM
same,GI50,[5],10.3 µM
same,TGI,[5],> 100 µM
same,GI50,[6],24.7 µM
same,TGI,[6],> 100 µM
same,GI50,[7],32.2 µM
same,TGI,[7],> 100 µM
same,GI50,[8],22 µM
same,TGI,[8],92.1 µM
same,GI50,[9],10.5 µM
same,TGI,[9],33.5 µM
same,GI50,[10],14.4 µM
same,TGI,[10],41.8 µM
same,GI50,[11],21.9 µM
same,TGI,[11],49.9 µM
same,GI50,[12],21.4 µM
same,TGI,[12],95.5 µM
same,GI50,[13],7.36 µM
same,TGI,[13],24.5 µM
same,GI50,[14],17.6 µM
same,TGI,[14],59 µM
same,GI50,[15],14 µM
same,TGI,[15],76.7 µM
same,GI50,[16],10.8 µM
same,TGI,[16],33.6 µM
same,GI50,[17],11.7 µM
same,TGI,[17],46.4 µM
same,GI50,[18],6.7 µM
same,TGI,[18],42.8 µM
same,GI50,[19],9.43 µM
same,TGI,[19],47.9 µM
same,GI50,[20],13.6 µM
same,TGI,[20],51.9 µM
same,GI50,[21],14 µM
same,TGI,[21],41.1 µM
same,GI50,[22],38.9 µM
same,TGI,[22],59.5 µM
same,GI50,[23],17.7 µM
same,TGI,[23],60.1 µM
same,GI50,[24],14 µM
same,TGI,[24],56.7 µM
same,GI50,[25],16.6 µM
same,TGI,[25],54.2 µM
same,GI50,[26],18.3 µM
same,TGI,[26],60.9 µM
same,GI50,[27],13.3 µM
same,TGI,[27],> 100 µM
same,GI50,[28],13.7 µM
same,TGI,[28],56.9 µM
same,GI50,[29],30 µM
same,TGI,[29],> 100 µM
same,GI50,[30],7.67 µM
same,TGI,[30],34 µM
same,GI50,[31],3.81 µM
same,TGI,[31],31.6 µM
same,GI50,[32],13.7 µM
same,TGI,[32],51.1 µM
same,GI50,[33],19.1 µM
same,TGI,[33],60.4 µM
same,GI50,[34],19.6 µM
same,TGI,[34],50.3 µM
same,GI50,[35],20.9 µM
same,TGI,[35],83.6 µM
same,GI50,[36],4.63 µM
same,TGI,[36],35.3 µM
same,GI50,[37],14.6 µM
same,TGI,[37],31.8 µM
same,GI50,[38],23.2 µM
same,TGI,[38],> 100 µM
same,GI50,[39],5.3 µM
same,TGI,[39],37.8 µM
same,GI50,[40],12.4 µM
same,TGI,[40],78.5 µM
same,GI50,[41],5.78 µM
same,TGI,[41],35.9 µM
same,GI50,[42],2520 nM
same,TGI,[42],> 100 µM
same,GI50,[43],11.3 µM
same,TGI,[43],> 100 µM
same,GI50,[44],12.5 µM
same,TGI,[44],34.5 µM
same,GI50,[45],3.05 µM
same,TGI,[45],9.19 µM
same,GI50,[46],2930 nM
same,TGI,[46],27.8 µM
same,GI50,[47],14.7 µM
same,TGI,[47],39.4 µM
same,GI50,[48],4.08 µM
same,TGI,[48],> 100 µM
same,GI50,[49],11.1 µM
same,TGI,[49],25 µM
same,GI50,[50],16 µM
same,TGI,[50],> 100 µM
Oc1c(C(O)c2ccccn2)ccc2ccccc12 (stereo unspecified),TGI,[3],42.1 µM
same,TGI,[4],> 100 µM
same,TGI,[5],> 100 µM
same,TGI,[6],> 100 µM
same,TGI,[7],> 100 µM
same,TGI,[10],> 100 µM
same,TGI,[12],> 100 µM
same,TGI,[13],> 100 µM
same,TGI,[51],> 100 µM
same,TGI,[14],> 100 µM
same,TGI,[15],> 100 µM
same,TGI,[17],> 100 µM
same,TGI,[18],46.1 µM
same,TGI,[19],> 100 µM
same,TGI,[52],59.4 µM
same,TGI,[20],> 100 µM
same,TGI,[23],> 100 µM
same,TGI,[24],> 100 µM
same,TGI,[27],> 100 µM
same,TGI,[29],> 100 µM
same,TGI,[30],74.1 µM
same,TGI,[32],> 100 µM
same,TGI,[33],> 100 µM
same,TGI,[53],> 100 µM
same,TGI,[54],> 100 µM
same,TGI,[38],> 100 µM
same,TGI,[40],> 100 µM
same,TGI,[41],> 100 µM
same,TGI,[42],> 100 µM
same,TGI,[43],> 100 µM
same,TGI,[44],> 100 µM
same,TGI,[45],> 100 µM
same,TGI,[55],97 µM
same,TGI,[48],> 100 µM
same,TGI,[49],> 100 µM
same,TGI,[50],> 100 µM
